Data set [1] can be described thus: Blood concentrations of morphine glucuronides by ABCC3 -211C>T genotype. The settings on record: for ratio to morphine concentration: heterozygous or homozygous ABCC3 -211C>T versus wild-type; for mean concentration at sampling time 10 to 15 minutes: wild-types (C/C) versus heterozygous and homozygous ABCC3 -211C>T, after single morphine dose.
Data set [2] concerns children after tonsillectomy. Briefly: Codeine-related adverse drug reactions at home after tonsillectomy (parent diary). The settings on record: with every one point increase in CYP2D6 TAS; POD 0-2.
The test system of data set [3] is children after tonsillectomy. Briefly: Pain intensity before and after codeine (0-100 visual analog scale). Type of data set: in vivo, human. The following applies: POD 0-2; 0-100 VAS, 45-60 minutes after dose; SE 2.
The subject of data set [4] is children following T/TA. The following applies: cited from earlier work.
The test system of data set [5] is women following cesarean section. The settings on record: cited from earlier work.

SMILES strings stand for the structures. Read-outs that look alike come from different tables or passages of the source. Where only a bound is given, the exact number is not on record here.

Regarding `CN1CC[C@]23c4c5ccc(O[C@@H]6O[C@H](C(=O)O)[C@@H](O)[C@H](O)[C@H]6O)c4O[C@H]2[C@@H](O)C=C[C@H]3[C@H]1C5` [M3G, Morphine-3-glucuronide], in data set [1], the “ratio to morphine concentration” value was “significantly lower” and the “mean concentration at sampling time 10 to 15 minutes” value is listed as “higher”.
On to `CN1CC[C@]23c4c5ccc(O)c4O[C@H]2[C@@H](O[C@@H]2O[C@H](C(=O)O)[C@@H](O)[C@H](O)[C@H]2O)C=C[C@H]3[C@H]1C5` [M6G, morphine-6-glucuronide], for which, in data set [1], the “ratio to morphine concentration” value is listed as “significantly lower” and the “mean concentration at sampling time 10 to 15 minutes” value was “higher”. The “blood concentration at sampling time 10 to 15 minutes” value in data set [1] (twelve out of 105 children, all carrying the ABCC3 -211C>T variant, below lower quantitative limit) was less than 1 ng/mL.
Consider `COc1ccc2c3c1O[C@H]1[C@@H](O)C=C[C@H]4[C@@H](C2)N(C)CC[C@@]341` [codeine], for which the “increase of predicted number of ADRs” value in data set [2] is recorded as 0.41. For the same compound, in data set [3], the “reduction of pain intensity (average)” value is 28 points. The “children withdrawn from study due to intolerable side effects” value is given as 6.7% in data set [4] (PRN administration following T/TA) and 17.4% in data set [4] (around-the-clock (ATC) administration following T/TA). The reported analgesia entry is “significant pain relief” in data set [5] (two patients with CYP2D6 TAS >3, discontinued due to ADRs) and “no analgesia” in data set [5] (two patients with CYP2D6 TAS=0).

The record behind these values is patent US10662476B2 (priority 2011, dated 2020).
